Results reported in PubChem BioAssay AID1963986 (Molecular Pharmacology Branch, DTP, NCI, 2024).

Test system: 171881-019-R-J1-PDC tumor spheroid viability
Assay: Anticancer human tumor 171881-019-R-J1-PDC patient-derived invasive breast carcinoma cell line growth inhibition [PI3K]
Details: spheroids with HUVEC and MSC; for IC50: curve of first compound; for viability, T/C: stronger effect = lower value; active = viability on the fitted dose curve at most 10% of control; inactive = the rest
How it was run: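 Spheroid viability read-out. Co-cultures contained the tumor line plus HUVEC and human MSCs. Each agent was paired with a PI3K inhibitor (inavolisib, alpelisib, duvelisib, copanlisib) across half-log dilutions starting at clinical Cmax, or at 10 microM when Cmax was unknown.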

[1] = second compound 0.0316 µM, first compound 0.0316 µM
[2] = second compound 0.0316 µM, first compound 0.1 µM
[3] = second compound 0.1 µM, first compound 0.0316 µM
[4] = second compound 0.1 µM, first compound 0.1 µM
[5] = second compound 0.316 µM, first compound 0.0316 µM
[6] = second compound 0.316 µM, first compound 0.1 µM
[7] = second compound 1 µM, first compound 0.0316 µM
[8] = second compound 1 µM, first compound 0.1 µM
[9] = second compound 0.0316 µM, first compound 0.316 µM
[10] = second compound 0.0316 µM, first compound 1 µM
[11] = second compound 0.0316 µM, first compound 3.16 µM
[12] = second compound 0.0316 µM, first compound 10 µM
[13] = second compound 0.1 µM, first compound 0.316 µM
[14] = second compound 0.1 µM, first compound 1 µM
[15] = second compound 0.1 µM, first compound 3.16 µM
[16] = second compound 0.1 µM, first compound 10 µM
[17] = second compound 0.316 µM, first compound 0.316 µM
[18] = second compound 0.316 µM, first compound 1 µM
[19] = second compound 0.316 µM, first compound 3.16 µM
[20] = second compound 0.316 µM, first compound 10 µM
[21] = second compound 1 µM, first compound 0.316 µM
[22] = second compound 1 µM, first compound 1 µM
[23] = second compound 1 µM, first compound 3.16 µM
[24] = second compound 1 µM, first compound 10 µM
[25] = second compound 3.16 µM, first compound 0.0316 µM
[26] = second compound 3.16 µM, first compound 0.1 µM
[27] = second compound 3.16 µM, first compound 0.316 µM
[28] = second compound 3.16 µM, first compound 1 µM
[29] = second compound 3.16 µM, first compound 3.16 µM
[30] = second compound 3.16 µM, first compound 10 µM
[31] = second compound 10 µM, first compound 0.0316 µM
[32] = second compound 10 µM, first compound 0.1 µM
[33] = second compound 10 µM, first compound 0.316 µM
[34] = second compound 10 µM, first compound 1 µM
[35] = second compound 10 µM, first compound 3.16 µM
[36] = second compound 10 µM, first compound 10 µM
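Note: spheroids exposed to compound for 7 days before viability read.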
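Throughout, for viability, T/C: 100% = DMSO vehicle-treated spheroids.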

CC(=O)c1c(C)c2cnc(Nc3ccc(N4CCNCC4)cn3)nc2n(C2CCCC2)c1=O + COc1c(OCCCN2CCOCC2)ccc2c3n(c(=NC(=O)c4cnc(N)nc4)nc12)CCN3
< 0.000316 µM: IC50 (second compound 0.01 µM) | IC50 (second compound 0.0316 µM) | IC50 (second compound 0.1 µM) | IC50 (second compound 0.316 µM) | IC50 (second compound 1 µM)
active: viability, T/C (second compound 0.1 µM, first compound 0.000316 µM) 6.71% | viability, T/C (second compound 0.1 µM, first compound 0.001 µM) 6.39% | viability, T/C (second compound 0.1 µM, first compound 0.00316 µM) 8.12% | viability, T/C (second compound 0.1 µM, first compound 0.01 µM) 7.28% | viability, T/C [3] 8.51% | viability, T/C [4] 7.44% | viability, T/C (second compound 0.316 µM, first compound 0.000316 µM) 1.58% | viability, T/C (second compound 0.316 µM, first compound 0.001 µM) 2.19% | viability, T/C (second compound 0.316 µM, first compound 0.00316 µM) 1.53% | viability, T/C (second compound 0.316 µM, first compound 0.01 µM) 1.61% | viability, T/C [5] 1.59% | viability, T/C [6] 1.7% | viability, T/C (second compound 1 µM, first compound 0.000316 µM) 1.49% | viability, T/C (second compound 1 µM, first compound 0.001 µM) 1.21% | viability, T/C (second compound 1 µM, first compound 0.00316 µM) 1.21% | viability, T/C (second compound 1 µM, first compound 0.01 µM) 1.26% | viability, T/C [7] 1.35% | viability, T/C [8] 1.32%
inactive: viability, T/C (second compound 0.00316 µM, first compound 0.000316 µM) 64.3% | viability, T/C (second compound 0.00316 µM, first compound 0.001 µM) 63.9% | viability, T/C (second compound 0.00316 µM, first compound 0.00316 µM) 65.5% | viability, T/C (second compound 0.00316 µM, first compound 0.01 µM) 73% | viability, T/C (second compound 0.00316 µM, first compound 0.0316 µM) 65% | viability, T/C (second compound 0.00316 µM, first compound 0.1 µM) 70.4% | viability, T/C (second compound 0.01 µM, first compound 0.000316 µM) 48.1% | viability, T/C (second compound 0.01 µM, first compound 0.001 µM) 53.9% | viability, T/C (second compound 0.01 µM, first compound 0.00316 µM) 52.2% | viability, T/C (second compound 0.01 µM, first compound 0.01 µM) 55.1% | viability, T/C (second compound 0.01 µM, first compound 0.0316 µM) 57.9% | viability, T/C (second compound 0.01 µM, first compound 0.1 µM) 58.5% | viability, T/C (second compound 0.0316 µM, first compound 0.000316 µM) 20.7% | viability, T/C (second compound 0.0316 µM, first compound 0.001 µM) 25% | viability, T/C (second compound 0.0316 µM, first compound 0.00316 µM) 26.8% | viability, T/C (second compound 0.0316 µM, first compound 0.01 µM) 27% | viability, T/C [1] 28.5% | viability, T/C [2] 27.9%
> 0.1 µM: IC50 (second compound 0.00316 µM)

CC(Cn1ccc(-c2ccc(C#N)c(Cl)c2)n1)NC(=O)c1cc(C(C)O)[nH]n1 (stereo unspecified) + Cc1nc(NC(=O)N2CCCC2C(N)=O)sc1-c1ccnc(C(C)(C)C(F)(F)F)c1
> 10 µM: IC50 (second compound 0.0316 µM) | IC50 (second compound 0.1 µM)
active: viability, T/C [31] 3.76% | viability, T/C [32] 3.6% | viability, T/C [33] 3.61% | viability, T/C [34] 3.9% | viability, T/C [35] 3.74% | viability, T/C [36] 3.87%
inactive: viability, T/C [1] 101% | viability, T/C [2] 85.3% | viability, T/C [9] 87.7% | viability, T/C [10] 93.7% | viability, T/C [11] 85% | viability, T/C [12] 62.8% | viability, T/C [3] 74.8% | viability, T/C [4] 72.9% | viability, T/C [13] 81.3% | viability, T/C [14] 80% | viability, T/C [15] 75.6% | viability, T/C [16] 59.1% | viability, T/C [5] 55.5% | viability, T/C [6] 55.3% | viability, T/C [17] 50.7% | viability, T/C [18] 57.7% | viability, T/C [19] 52.5% | viability, T/C [20] 40.3% | viability, T/C [7] 34.4% | viability, T/C [8] 32.9% | viability, T/C [21] 33.4% | viability, T/C [22] 30.8% | viability, T/C [23] 30.5% | viability, T/C [24] 24.4% | viability, T/C [25] 14.5% | viability, T/C [26] 13.7% | viability, T/C [27] 15.3% | viability, T/C [28] 13.1% | viability, T/C [29] 14.2% | viability, T/C [30] 11.9%
< 0.0316 µM: IC50 (second compound 1 µM) | IC50 (second compound 3.16 µM) | IC50 (second compound 10 µM)
4.16 µM: IC50 (second compound 0.316 µM)

C[C@@H](NC(=O)c1ncnc(N)c1Cl)c1ncc(C(=O)Nc2cc(C(F)(F)F)c(Cl)cn2)s1 + CC(Nc1ncnc2nc[nH]c12)c1cc2cccc(Cl)c2c(=O)n1-c1ccccc1
inactive: viability, T/C [1] 76.3% | viability, T/C [2] 81.8% | viability, T/C [9] 86.3% | viability, T/C [10] 104% | viability, T/C [11] 79% | viability, T/C [12] 51.3% | viability, T/C [3] 92.4% | viability, T/C [4] 96.4% | viability, T/C [13] 88.2% | viability, T/C [14] 93.4% | viability, T/C [15] 76.5% | viability, T/C [16] 48.5% | viability, T/C [5] 92.7% | viability, T/C [6] 78% | viability, T/C [17] 93.2% | viability, T/C [18] 83.2% | viability, T/C [19] 79.4% | viability, T/C [20] 44.1% | viability, T/C [7] 99.6% | viability, T/C [8] 92.8% | viability, T/C [21] 96.4% | viability, T/C [22] 93.8% | viability, T/C [23] 69.4% | viability, T/C [24] 41.4% | viability, T/C [25] 90.1% | viability, T/C [26] 74.8% | viability, T/C [27] 78% | viability, T/C [28] 77.9% | viability, T/C [29] 48.8% | viability, T/C [30] 30% | viability, T/C [31] 63.8% | viability, T/C [32] 60.8% | viability, T/C [33] 54.6% | viability, T/C [34] 48.5% | viability, T/C [35] 33.4% | viability, T/C [36] 21.2%
0.666 µM: IC50 (second compound 10 µM)
9.46 µM: IC50 (second compound 0.1 µM)
3.02 µM: IC50 (second compound 3.16 µM)
> 10 µM: IC50 (second compound 0.0316 µM)
7.02 µM: IC50 (second compound 1 µM)
8.25 µM: IC50 (second compound 0.316 µM)
